Data from PMC12348107, “Saponins from Oxybasis rubra (L.) S.Fuentes, Uotila & Borsh: Comparative Assessment of Cytotoxic Potential Against a Wide Panel of Cancer Cell Lines” (Molecules, 2025).
Where “and” joins values, the source holds several entries; their conditions need not be identical. Equal entries are not always repeated. Where two headings read alike, the source gives them in different places. Marks after values point to notes of the source that are not given here.

Columns and labels:
[1] = tested on: Caco-2 colon adenocarcinoma cells; test: LDH cytotoxicity assay, Caco-2; type: cell-based; conditions: Homo sapiens, LDH test, read-out: Cytotoxic activity expressed as IC50
Experimental: (§1) The cytotoxic activity was tested on human cancer and normal cell lines, grouped in several panels: skin (malignant melanoma HTB-140, malignant melanoma A375, melanoma WM793, and normal keratinocytes HaCaT), prostate (prostate carcinoma DU-145, prostate carcinoma PC3, and prostate epithelial cells PNT2), thyroid (thyroid carcinoma FTC133, thyroid carcinoma, undifferentiated 8505C), gastrointestinal panel (hepatocellular carcinoma HepG2, colon adenocarcinoma Caco-2, and colon adenocarcinoma HT29), and single line of lung carcinoma A549. Cells were grown at standard conditions (37 °C, 5% CO2, relative humidity) and culture media (DMEM/F12 for PNT2, WM793, HT29, A549; DMEM Low Glucose for DU-145; DMEM High Glucose for A375, HaCaT, A549; MEM with NEAA for Caco-2), supplemented with 10% fetal bovine serum (FBS) and 1% antibiotic solution (10,000 U penicillin and 10 mg streptomycin/mL). All cell lines, cell culture media, and supplements were from Merck (Seelze, Germany).
(§2) Before the experiment, cells were seeded onto 96-well plates for 24 h, at a density of 1.5 × 10^4 cells/ well. Then the tested compounds (5–100 μg/mL) were added and incubated for 24 and 48 h. Cell viability was measured with the lactate dehydrogenase (LDH) assay by Clontech (Clontech, Mountain View, CA, USA), as described previously. The absorbance was measured at 490 nm using a Biotek Synergy microplate reader (BioTek Instruments Inc., Winooski, VT, USA). Cell viability was expressed as a percentage of dead cells. Each experiment was conducted in triplicate. Doxorubicin was used as a reference cytostatic.
(§3) The results were expressed as mean (±SD). Data were analyzed using Statistica v.13.3 (StatSoft, Tulsa, OK, USA). The IC50 values were calculated using OriginPro 2020b (64-bit) 9.7.5.184 (Academic) (OriginLab Corporation, Northampton, MA, USA). One-way analysis of variance (ANOVA) and the post-hoc Tukey multiple comparison test were used. The statistical significance was defined at the probability level of p < 0.05. Principal component analysis (PCA) and hierarchical cluster analysis (HCA) were performed using Statistica v.13.3 (StatSoft, Tulsa, OK, USA). Prior to PCA, the Bartlett’s sphericity test was conducted, and the Kaiser-Meyer-Olkin Measure of Sampling Adequacy index (KMO) was examined. In the simple model, for each compound tested (1–4), the cell lines were the cases, and the different concentrations of the compound were the parameters. This was followed by a PCA model in which the cell lines were the parameters, and the compounds (at different concentrations) were the cases. All PCA models were based on a correlation matrix. Hierarchical cluster analysis (CA) based on standardized data was performed using Ward’s method and Euclidean distance. The results were grouped based on Mojena’s rule.

[2] = tested on: HepG2 hepatocellular carcinoma cells; test: LDH cytotoxicity assay, HepG2; type: cell-based; conditions: Homo sapiens, LDH test, read-out: Cytotoxic activity expressed as IC50
Experimental: as §1, §2, §3

[3] = tested on: HT29 colon adenocarcinoma cells; test: LDH cytotoxicity assay, HT29; type: cell-based; conditions: Homo sapiens, HT-29, LDH test, read-out: Cytotoxic activity expressed as IC50
Experimental: as §1, §2, §3

[4] = tested on: FTC133 follicular thyroid carcinoma cells; test: LDH cytotoxicity assay, FTC133; type: cell-based; conditions: Homo sapiens, FTC-133, LDH test, read-out: Cytotoxic activity expressed as IC50
Experimental: as §1, §2, §3

[5] = tested on: A375 malignant melanoma cells; test: LDH cytotoxicity assay, A375; type: cell-based; conditions: Homo sapiens, A-375, LDH test, read-out: Cytotoxic activity expressed as IC50
Experimental: as §1, §2, §3

[6] = tested on: HTB-140 malignant melanoma cells; test: LDH cytotoxicity assay, HTB-140; type: cell-based; conditions: Homo sapiens, LDH test, read-out: Cytotoxic activity expressed as IC50
Experimental: as §1, §2, §3

[7] = tested on: human cancer and normal cell lines; test: Cytotoxicity screening across the whole cell line panel; type: cell-based; conditions: all cell lines tested, 5–100 μg/mL, 24 and 48 h
Experimental: The cytotoxic activity was tested on human cancer and normal cell lines, grouped in several panels: skin (malignant melanoma HTB-140, malignant melanoma A375, melanoma WM793, and normal keratinocytes HaCaT), prostate (prostate carcinoma DU-145, prostate carcinoma PC3, and prostate epithelial cells PNT2), thyroid (thyroid carcinoma FTC133, thyroid carcinoma, undifferentiated 8505C), gastrointestinal panel (hepatocellular carcinoma HepG2, colon adenocarcinoma Caco-2, and colon adenocarcinoma HT29), and single line of lung carcinoma A549. […]
Before the experiment, cells were seeded onto 96-well plates for 24 h, at a density of 1.5 × 10^4 cells/ well. […] Cell viability was measured with the lactate dehydrogenase (LDH) assay by Clontech (Clontech, Mountain View, CA, USA), as described previously. The absorbance was measured at 490 nm using a Biotek Synergy microplate reader (BioTek Instruments Inc., Winooski, VT, USA). Cell viability was expressed as a percentage of dead cells. […]
The results were expressed as mean (±SD). Data were analyzed using Statistica v.13.3 (StatSoft, Tulsa, OK, USA). The IC50 values were calculated using OriginPro 2020b (64-bit) 9.7.5.184 (Academic) (OriginLab Corporation, Northampton, MA, USA). […]

[8] = tested on: DU-145 metastatic prostate carcinoma cells; test: LDH cytotoxicity assay, DU-145; type: cell-based, human; conditions: for IC50: Homo sapiens, LDH test, read-out: Cytotoxic activity expressed as IC50
Experimental: as §1, §2, §3

[9] = LDH cytotoxicity assay, PNT2; type: cell-based, human; conditions: human, PNT2 prostate epithelial cells (normal), PNT2 normal cells, LDH test, read-out: Cytotoxic activity expressed as IC50; for IC50 at 24 h: 24 h incubation; for IC50 at 48 h: 48 h incubation
Experimental: as §1, §2, §3

[10] = tested on: 8505C undifferentiated thyroid carcinoma cells; test: LDH cytotoxicity assay, 8505C; type: cell-based; conditions: Homo sapiens, LDH test, read-out: Cytotoxic activity expressed as IC50
Experimental: as §1, §2, §3

[11] = tested on: PC3 metastatic prostate carcinoma cells; test: LDH cytotoxicity assay, PC3; type: cell-based; conditions: Homo sapiens, LDH test, read-out: Cytotoxic activity expressed as IC50
Experimental: as §1, §2, §3

[12] = LDH cytotoxicity assay, HaCaT; type: cell-based, human; conditions: human, HaCaT normal keratinocytes, HaCaT normal cells, LDH test, read-out: Cytotoxic activity expressed as IC50; for IC50 at 24 h: 24 h incubation; for IC50 at 48 h: 48 h incubation
Experimental: as §1, §2, §3

[13] = tested on: WM793 primary melanoma cells; test: LDH cytotoxicity assay, WM793; type: cell-based; conditions: Homo sapiens, LDH test, read-out: Cytotoxic activity expressed as IC50
Experimental: as §1, §2, §3

[14] = tested on: A549 lung carcinoma cells; test: LDH cytotoxicity assay, A549; type: cell-based, human; conditions: LDH test; for IC50: Homo sapiens, read-out: Cytotoxic activity expressed as IC50
Experimental: as §1, §2, §3

[15] = tested on: PNT2 prostate epithelial cells; test: LDH cytotoxicity assay, PNT2; type: cell-based, human; conditions: normal prostate epithelial cells
Experimental: as §1, §2, §3

[16] = tested on: HaCaT normal keratinocytes; test: LDH cytotoxicity assay, HaCaT; type: cell-based, human; conditions: HaCaT normal cells, 48 h incubation, LDH test
Experimental: as §1, §2, §3

[17] = A549, 24 h, A549, 24 h incubation
[18] = A549, 48 h, A549, 48 h incubation

| Structure (SMILES) | IC50 ([1]; Caco-2, 24 h incubation) | IC50 ([1]; Caco-2, 48 h incubation) | IC50 ([2]; HepG2, 24 h incubation) | IC50 ([2]; HepG2, 48 h incubation) | IC50 ([3]; HT29, 24 h incubation) | IC50 ([3]; HT29, 48 h incubation) | IC50 ([4]; FTC133, 24 h incubation) | IC50 ([4]; FTC133, 48 h incubation) | IC50 ([5]; A375, 24 h incubation) | IC50 ([5]; A375, 48 h incubation) | IC50 ([6]; HTB-140, 24 h incubation) | IC50 ([6]; HTB-140, 48 h incubation) | IC50 ([8]; DU-145, 24 h incubation) | IC50 ([8]; DU-145, 48 h incubation) | IC50 at 24 h [9] | IC50 at 48 h [9] | IC50 ([10]; 24 h incubation) | IC50 ([10]; 48 h incubation) | IC50 ([11]; PC3, 24 h incubation) | IC50 ([11]; PC3, 48 h incubation) | other results |
| --- | --- | --- | --- | --- | --- | --- | --- | --- | --- | --- | --- | --- | --- | --- | --- | --- | --- | --- | --- | --- | --- |
| CC1(C)CC[C@]2(C(=O)O)CC[C@]3(C)C(=CC[C@@H]4[C@@]5(C)CC[C@H](O[C@@H]6O[C@H](CO)[C@@H](O)[C@H](O[C@@H]7O[C@H](CO)[C@@H](O)[C@H](O)[C@H]7O)[C@H]6O)[C@@](C)(CO)[C@@H]5CC[C@]43C)[C@@H]2C1 [Compound 1] | 27.1 µM and 21.6 µg/mL | 24.2 µM and 19.3 µg/mL | 16.6 µM and 13.2 µg/mL | 13.6 µM and 10.8 µg/mL | 35.7 µM and 28.4 µg/mL | 31.4 µM and 25 µg/mL | 30.8 µM and 24.5 µg/mL | 17.1 µM and 13.6 µg/mL | 22.6 µM and 18 µg/mL | 16 µM and 12.7 µg/mL | 33 µM and 26.2 µg/mL | 22.8 µM and 18.2 µg/mL | 20.7 µM and 16.5 µg/mL | 14.7 µM and 11.7 µg/mL | 51.1 µM and 40.7 µg/mL | 42.8 µM and 34.1 µg/mL | 45.1 µM and 35.9 µg/mL | 32.4 µM and 25.8 µg/mL | 73.6 µM and 58.6 µg/mL | 44.2 µM and 35.2 µg/mL | Overall cytotoxic activity across the panel, in words [7]: exhibited activity against all cell lines tested; IC50 at 24 h [12]: 50.8 µM and 40.4 µg/mL; IC50 at 48 h [12]: 33.9 µM and 27 µg/mL; IC50 ([13]; WM793, 24 h incubation): 34.6 µM and 27.6 µg/mL; IC50 ([13]; WM793, 48 h incubation): 21.6 µM and 17.2 µg/mL; IC50 [14, 17]: 18.7 µM and 14.9 µg/mL; IC50 [14, 18]: 14.8 µM and 11.8 µg/mL |
| CC1(C)CC[C@]2(C(=O)O[C@@H]3O[C@H](CO)[C@@H](O)[C@H](O)[C@H]3O)CC[C@]3(C)C(=CC[C@@H]4[C@@]5(C)CC[C@H](O[C@@H]6O[C@H](CO)[C@@H](O)[C@H](O[C@@H]7O[C@H](CO)[C@@H](O)[C@H](O)[C@H]7O)[C@H]6O)[C@@](C)(CO)[C@@H]5CC[C@]43C)[C@@H]2C1 [Compound 2] | > 100 µg/mL | 38.4 µM and 36.8 µg/mL | 98 µM and 94 µg/mL | 63 µM and 60.5 µg/mL | > 100 µg/mL | 66.5 µM and 63.8 µg/mL | 42.9 µM and 41.1 µg/mL | 23.5 µM and 22.5 µg/mL | 33.9 µM and 32.5 µg/mL | 31.4 µM and 30.1 µg/mL | > 100 µg/mL | > 100 µg/mL | 33.3 µM and 32 µg/mL | 22 µM and 21.1 µg/mL | > 100 µg/mL | > 100 µg/mL | > 100 µg/mL | > 100 µg/mL | > 100 µg/mL | 69.8 µM and 67 µg/mL | Toxicity against DU-145, in words ([8]; DU-145): moderate toxicity; IC50 ([15]; Homo sapiens, PNT2, incubation time not given, read-out: IC50 against normal prostate epithelial cells): > 100 µg/mL; Toxicity to normal prostate epithelial cells, in words [15]: non-toxic; Cytotoxic activity expressed as IC50 [16]: 39.93 ± 0.52 ^b µg/mL; IC50 at 24 h [12]: 46.8 µM and 44.9 µg/mL; IC50 at 48 h [12]: 41.6 µM and 39.9 µg/mL; IC50 ([13]; WM793, 24 h incubation): 14.4 µM and 13.8 µg/mL; IC50 ([13]; WM793, 48 h incubation): 6.79 µM and 6.52 µg/mL; Cytotoxic activity expressed as IC50 ([14]; A549, 48 h incubation): 8.23 ± 0.29 ^a µg/mL; IC50 [14, 17]: 13.8 µM and 13.2 µg/mL; IC50 [14, 18]: 8.58 µM and 8.24 µg/mL |
